Experimental findings from ChEMBL document CHEMBL1147913, “Na+-glucose cotransporter (SGLT) inhibitory flavonoids from the roots of Sophora flavescens” (Bioorg Med Chem, 2007) are described below.

Experiment [1] concerns the target T1, Sodium/glucose cotransporter 1 (Homo sapiens) (UniProt P13866).
T1 sequence (whole entry): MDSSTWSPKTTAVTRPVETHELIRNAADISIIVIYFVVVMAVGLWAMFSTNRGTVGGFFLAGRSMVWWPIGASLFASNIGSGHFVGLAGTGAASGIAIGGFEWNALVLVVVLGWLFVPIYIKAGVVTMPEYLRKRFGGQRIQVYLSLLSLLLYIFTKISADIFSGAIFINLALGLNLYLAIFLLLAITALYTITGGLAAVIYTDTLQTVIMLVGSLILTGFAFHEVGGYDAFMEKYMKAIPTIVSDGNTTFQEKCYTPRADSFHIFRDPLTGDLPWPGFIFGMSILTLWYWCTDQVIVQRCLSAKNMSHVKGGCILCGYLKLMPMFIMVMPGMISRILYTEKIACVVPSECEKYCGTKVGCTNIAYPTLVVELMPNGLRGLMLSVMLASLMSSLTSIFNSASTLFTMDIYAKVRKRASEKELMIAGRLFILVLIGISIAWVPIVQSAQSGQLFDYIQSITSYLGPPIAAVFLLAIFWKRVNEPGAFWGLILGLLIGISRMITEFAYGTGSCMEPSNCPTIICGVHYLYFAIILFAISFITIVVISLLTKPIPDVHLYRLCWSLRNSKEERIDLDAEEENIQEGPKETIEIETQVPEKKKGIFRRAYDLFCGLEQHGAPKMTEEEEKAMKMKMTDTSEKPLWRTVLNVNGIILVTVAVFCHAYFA
The experiment is described as follows: Inhibition of human SGLT1 expressed in COS1 cells assessed as [14C]methyl-alpha-D-glucopyranoside uptake at 50 uM. The format is cell-based. To be noted: COS-1.

The target of experiment [2] is T2, Sodium/glucose cotransporter 2 (Homo sapiens) (UniProt P31639).
T2 sequence (whole entry): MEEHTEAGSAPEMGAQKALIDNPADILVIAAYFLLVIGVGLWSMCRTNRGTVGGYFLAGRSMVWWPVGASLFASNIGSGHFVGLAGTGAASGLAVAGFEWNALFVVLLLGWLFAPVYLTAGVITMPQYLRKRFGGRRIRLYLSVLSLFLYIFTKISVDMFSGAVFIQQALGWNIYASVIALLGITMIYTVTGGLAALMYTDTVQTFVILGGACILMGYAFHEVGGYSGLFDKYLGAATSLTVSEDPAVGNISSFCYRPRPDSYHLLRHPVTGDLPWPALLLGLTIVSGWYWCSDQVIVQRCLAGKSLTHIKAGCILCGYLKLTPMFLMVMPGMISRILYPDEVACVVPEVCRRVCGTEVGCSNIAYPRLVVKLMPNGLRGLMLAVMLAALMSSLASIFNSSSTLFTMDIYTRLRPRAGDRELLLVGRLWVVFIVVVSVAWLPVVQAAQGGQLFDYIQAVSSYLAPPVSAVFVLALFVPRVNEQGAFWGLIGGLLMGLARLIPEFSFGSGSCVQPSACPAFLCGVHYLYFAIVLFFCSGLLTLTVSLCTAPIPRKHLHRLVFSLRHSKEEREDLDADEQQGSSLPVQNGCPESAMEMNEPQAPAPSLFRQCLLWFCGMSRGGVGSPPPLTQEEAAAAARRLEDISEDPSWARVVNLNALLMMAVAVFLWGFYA
The experiment is described as follows: Inhibition of human SGLT2 expressed in COS1 cells assessed as [14C]methyl-alpha-D-glucopyranoside uptake at 50 uM. The following applies: COS-1. The format is cell-based.

Experiment [3] concerns the target T3, Sodium/glucose cotransporter 2 (Homo sapiens, UniProt P31639).
T3 sequence (P31639 whole entry): T2 sequence (whole entry)
The experiment is described as follows: Inhibition of human SGLT2 expressed in COS1 cells assessed as [14C]methyl-alpha-D-glucopyranoside uptake. The format is cell-based, COS-1.

Each structure is given as a SMILES string. Bounds are passed on as bounds.

Consider `COc1ccc2c(c1)OC[C@H]1c3cc4c(cc3O[C@@H]21)OCO4`, for which the inhibition in experiment [1] and in experiment [2] was < 25% in each case.

On to `C=C(C)C(CC=C(C)C)Cc1c(O)cc(OC)c2c1O[C@H](c1ccc(O)cc1O)[C@H](O)C2=O` (stereo partly drawn), for which the inhibition in experiment [1] was 58.4%; in experiment [2], 87.3%.

Regarding `C=C(C)[C@H](CCC(C)(C)O)Cc1c(O)cc(OC)c2c1O[C@H](c1ccc(O)cc1O)[C@H](O)C2=O`, the inhibition in experiment [1] stood at 29.7%; in experiment [2], 43.7%.

In the case of `Oc1ccc2c(c1)OC[C@H]1c3cc4c(cc3O[C@@H]21)OCO4`, the inhibition in experiment [1] is < 25%; in experiment [2], 66.5%.

Take `C=C(C)[C@H](CC=C(C)C)Cc1c(O)cc(O)c2c1O[C@H](c1ccc(O)cc1O)CC2=O` [SOPHORAFLAVANONE G]: in experiment [3], the IC50 worked out at 4100 nM. Moreover, the inhibition in experiment [1] turned out to be 99.2%; in experiment [2] it was 100%.

Regarding `COc1ccc(-c2coc3cc(O)ccc3c2=O)cc1`, the inhibition is < 25% in experiment [1] and 75.4% in experiment [2].

For `C=C(C)[C@H](CC=C(C)C)Cc1c(O)cc(OC)c(C(=O)/C=C/c2ccc(O)cc2O)c1O`, the inhibition in experiment [1] turned out to be 71.1%; in experiment [2], 100%.

For the compound `C=C(C)C(CC=C(C)C)Cc1c(O)cc(OC)c2c1O[C@H](c1ccc(O)cc1O)CC2=O` (stereo partly drawn) [KURARINONE], the IC50 in experiment [3] stood at 1700 nM. In addition, the inhibition in experiment [1] amounted to 98.8%; in experiment [2], 99.7%.
